Test results: patent US4517005A, “Aminophenol urease inhibitors and urease inhibited urea based fertilizer compositions” (Allied Corporation, priority 1983, dated 1985)
Structures can show the parent of a compound that is named as a salt.

How the values were obtained:
[1] = tested on: urease in New York soil (Cazenovia silt loam, pH 7.0); experiment: Urease Inhibition Efficacy Test in New York soil (Cazenovia silt loam); type: biochemical; conditions: 40 micrograms test compound per gram soil; 42.8 mg urea per 20 g air-dry soil; incubated at 25° C. for three days; remaining urea; run in triplicate
Procedure: (§1) Efficacy tests were conducted to evaluate the efficacy of certain representative aminophenol compounds as urease inhibitors. The inhibition tests were run in New York soil (Cazenovia silt loam, pH 7.0) or in Wisconsin soil (Plano silt loam, pH 5.4)
(§2) Evaluations (run in triplicate) consisted of applying 800 micrograms of the test compound in 5 ml of water and 42.8 mg of urea in 1 mL of water to 20 g of air-dry soil in a glass bottle. The bottle was capped with perforated aluminum foil and incubated at 25° C.C for three days prior to extraction with 100 mL of a 2M KCl solution containing 0.5 mg of phenylmercuric acetate. The extracts were then analyzed for remaining urea using an autoanalyzer. Percent inhibition was calculated as % Inhibition=[1-(A-B/A-C)]×100 where A is urea recovered from unincubated sample (urea added to soil and immediately extracted); B is urea recovered from inhibited sample; and C is urea recovered from the control (uninhibited sample).

[2] = tested on: urease in Wisconsin soil (Plano silt loam, pH 5.4); experiment: Urease Inhibition Efficacy Test in Wisconsin soil (Plano silt loam); type: biochemical; conditions: 40 micrograms test compound per gram soil; 42.8 mg urea per 20 g air-dry soil; incubated at 25° C. for three days; remaining urea; run in triplicate
Procedure: as §1, §2

2,6-Dichloroiminophenol, sodium salt
% Inhibition 40 micrograms per gram soil Cazenovia pH 7.0 [1]: 69%

Nc1ccccc1O [2-aminophenol]
% Inhibition 40 micrograms per gram soil Cazenovia pH 7.0 [1]: 8%

O=C(Nc1ccc(O)cc1)c1ccccc1 [4'-Hydroxybenzanilide]
% Inhibition 40 micrograms per gram soil Cazenovia pH 7.0 [1]: 50%
% Inhibition 40 micrograms per gram soil Wisconsin pH 5.4 [2]: 14%

CN(C)c1ccc(O)cc1 [4-(N,N--dimethylamino)-phenol hydrochloride]
% Inhibition 40 micrograms per gram soil Cazenovia pH 7.0 [1]: 77%
% Inhibition 40 micrograms per gram soil Wisconsin pH 5.4 [2]: 49%

CNc1ccc(O)cc1 [4-(N--methylamino)phenol sulfate]
% Inhibition 40 micrograms per gram soil Cazenovia pH 7.0 [1]: 82%
% Inhibition 40 micrograms per gram soil Wisconsin pH 5.4 [2]: 55%

Oc1ccc(Nc2ccccc2)cc1 [4-(N--phenyl)aminophenol]
% Inhibition 40 micrograms per gram soil Cazenovia pH 7.0 [1]: 69%
% Inhibition 40 micrograms per gram soil Wisconsin pH 5.4 [2]: 53%

Nc1ccc(O)cc1 [4-aminophenol]
% Inhibition 40 micrograms per gram soil Cazenovia pH 7.0 [1]: 46%

O=C(O)CNc1ccc(O)cc1 [N--(4-Hydroxyphenyl)glycine]
% Inhibition 40 micrograms per gram soil Cazenovia pH 7.0 [1]: 82%
% Inhibition 40 micrograms per gram soil Wisconsin pH 5.4 [2]: 61%
